Assay results reported in US9649324B2, “Use of tylvalosin as antiviral agent” (ECO ANIMAL HEALTH LIMITED, priority 2006, dated 2017).

What was measured:
EAV = test: Sensitivity to chloroquine (Example 8), EAV
PRRSV [1] = test system: PRRSV
PRRSV [2] = test: Inhibitors of PRRSV infection added at various times pre and post infection (Example 7); format: cell-based; settings: for PRRSV spread / initial PRRSV infection (initial site of infection): added 2 or 4 hours after infection
[3] = in vivo; cited from earlier work
PRRSV [4] = test: Effect of macrolides on PRRSV (background statement)
[5] = test system: chicken white blood cells; test: Intracellular accumulation in chicken white blood cells; format: in vitro ADME; set-up: intracellular:extracellular ratio, variation during the experimental time period: dose or concentration left out as unconfirmed; settings: chicken
Procedure: Pig blood was collected in Heparin-coated BD vacutainers (6). 20 mL of blood and 30 mL of phosphate buffered saline (PBS) were mixed in a 50 mL conical centrifuge tube. This was repeated in order to obtain 3 such tubes. The mixtures were centrifuged for 10 min at 2050×g. The white blood cells, together with some red blood cells below, were harvested into a 50 mL conical centrifuge tube. PBS was added to about 50 mL. A 63% solution of Percoll was made as follows: 6.3 mL Percoll (Sigma), 1.0 mL 1.5 M NaCl, 2.7 mL H2O. 10 mL of 63% Percoll was added to each of two 50 mL conical centrifuge tubes. 25 mL of the resuspended white blood cells were carefully layered on top of the each of the Percoll solutions. A sharp interface was produced. The material was centrifuged at 3000×g for 10 min. […] The white blood cells were harvested in PBS (50 mL) and centrifuged at 500×g for 10 min. The cell pellet was resuspended in medium (Glasgow minimum essential medium containing penicillin and streptomycin). A viable cell count was made using trypan blue. The same method used for isolation of pig WBCs was used for the chicken WBCs, with the exception that heparin (100 I.U./mL) was prepared and mixed with an equal volume of chicken whole blood.
All tubes were placed on a rotary mixing machine, at 37° C. Supernatant and cell samples were harvested at the times described in the figure legends. Duplicate samples were used for each antibiotic for each time point.
(§1) All the supernatant and cell samples were transported frozen (at approximately −20° C.) to York Bioanalytical Solutions (York, England) for analysis. Briefly, 0.25 g of buffer (RPMI medium containing 10% FCS) was weighed into a polypropylene tube. A 50 μL volume of the appropriate working solution was added to the quality control (QC) samples. Methanol (50 μL) was added to each blank sample used for preparation of calibration standards, recovery samples and reagent blanks. A 2.5 mL volume of 0.1 M phosphate buffer was added to each sample, vortex mixed for approximately 1 min and then centrifuged at 3220×g for 10 min at 4° C.
(§2) For the liquid-liquid clean-up phase, an aliquot (100 μL) of the supernatant was transferred to a polypropylene tube. The pH was adjusted to pH 8-8.5 by the addition of 0.1 M NaOH, and vortex mixed. Ethyl acetate (5 mL) was added and after capping, the whole mixture was shaken for 10 min and then centrifuged at 3220×g for 10 min at 4° C.
(§3) Ammonium acetate (20 mM; pH native)—formic acid, 1000:3, v/v (100 μL) was added to each well in a 2 mL polypropylene collection plate. An aliquot of the ethyl acetate mixture (100 μL) was transferred to the polypropylene collection plate and evaporated under nitrogen (40° C.) until the ethyl acetate was fully evaporated whilst the ammonium acetate remained. Methanol (100 μL) was added to each well, excluding the calibration standards.
(§4) To each well containing a calibration standard, 100 μL of the appropriate calibration working solution was added. Samples were then vortex mixed for at least 10 min and submitted for liquid chromatography with tandem mass spectrometric analysis. The method stated was applicable to the samples of media (and the calibration standards and quality control samples).
(§5) For the cells, the sample tubes were weighed, and 100 μL of acetonitrile was added. The samples were vortex mixed for 10 sec, then centrifuged at 10285×g at 4° C. for 5 min. The sample was transferred to a polypropylene tube. The original sample tube was washed with 0.1 M phosphate buffer (1 mL). This was transferred to the polypropylene tube. A second wash of 1 mL was made, then a final wash of 0.5 mL. The polypropylene tube was now at the same stage as the end of the liquid extraction, but with the cells present rather than media. This was then taken through the sample preparation as described above. […]

[6] = test system: VR2332 (US strain of PRRSV); test: VR2332 (US strain of PRRSV) entry assay in MA104 cells (Example 10); settings: 4 h pretreatment, moi 10, overnight
HRT-18 cells = test: Intracellular accumulation of macrolides in HRT-18 cells; format: in vitro ADME, human; settings: for intracellular:extracellular ratio: human, 10 μg/mL
Procedure: HRT-18 cells, in 6 cm tissue cultures dishes, were incubated in the presence of 0.5, 5 or 50 μg/mL tylvalosin. After 4 h, two dishes for each tylvalosin concentration and two dishes without antibiotic were removed from the incubator. A sample of medium (about 1 mL) was removed, placed in a labelled Eppendorf tube and stored at −20° C. The rest of the medium was then removed. Each of the cell monolayers was washed twice in PBS, using approximately 5 mL for each wash. The plunger from a 2 mL plastic syringe was used to gently scrape off the cells. PBS (500 μL) was added to the dish and the cells gently removed into this medium, using a micropipette. The sample was then placed in an Eppendorf tube and centrifuged at 8000×g in a bench centrifuge (Biofuge pico, Heraeus instruments) for 13 sec. An obvious cell pellet formed. The supernatant was removed using a micropipette and the cell material was stored at −20° C. in a labelled Eppendorf tube. After approximately 24 h the remaining tissue culture dishes were removed from the incubator and treated as described above for the 4 h samples. All the samples, including the 4 h samples, were then stored at −70° C.
HRT-18 cells were prepared as described above and used at passage 42. Stock solutions of antibiotics (either tylvalosin, tylosin or tilmicosin) were diluted in growth media and 10 μg/mL each antibiotic was added to the confluent cell monolayers. The cells were incubated at 37° C. in a 5% CO2 atmosphere for either 4 h or 24 h. The media and cells were harvested and tested for antibiotic, as described above.
as §1, §2, §3, §4, §5

LLC-PK1 cells = test: Intracellular accumulation in pig kidney epithelial cells; format: in vitro ADME; settings: pig, 75 min, 10 μg/mL
Procedure: LLC-PKI cells in 6 cm^2 plastic tissue culture dishes were incubated with 10 μg/mL of the different macrolides. Cells and medium were harvested as described above at 30, 75 and 120 min.
as §1, §2, §3, §4
(§6) For the cells, the sample tubes were weighed, and 100 μL of acetonitrile was added. The samples were vortex mixed for 10 sec, then centrifuged at 10285×g at 4° C. for 5 min. The sample was transferred to a polypropylene tube. The original sample tube was washed with 0.1 M phosphate buffer (1 mL). This was transferred to the polypropylene tube. A second wash of 1 mL was made, then a final wash of 0.5 mL. The polypropylene tube was now at the same stage as the end of the liquid extraction, but with the cells present rather than media. This was then taken through the sample preparation as described above. The original sample tubes were allowed to dry (i.e. any remaining solvent evaporated off) and were then reweighed to determine the weight of cells in the sample, to allow the concentration per gram of cells to be determined.

endosomal pH = test: Acridine orange assay of endosomal pH (Example 13); format: cell-based; settings: acridine orange stained endosomes, any cell line
Procedure: Acridine orange is a dye that causes cells to fluoresce green with the exception of acidic compartments (such as endosomes) that appear red—due to the protonation of the dye and quenching of the green fluorescence. A substance that raises the endosomal pH will prevent the appearance of the red fluorescence. The effect of Aivlosin® and other macrolide antibiotics on a the staining of endosomes by acridine orange in number of cells lines was determined (see FIG. 19). An area of cells grown on a glass coverslip is first selected using a DAPI stain. […] This selection procedure helps reduce any bias in the results. The green and red filters on the epifluorescence microscope were then used to examine about 20 cells. The number of red spots (endosome vesicles) in was determined. The average number of Acridine orange stained endosomes was counted.

Caco-2 cells = test: Intracellular accumulation and trans-epithelial transport in polarised Caco-2 cells; format: in vitro ADME, human; settings: human, Caco-2, 240 min, 10 μg/mL
Procedure: Caco-2 cells were seeded at a density of 0.8×10^6 cells per well of a Transwell Clear filter 6 well plate, 0.4 μm pore size. The cells were incubated with 2 mL medium in both apical and basolateral chambers. This medium was replaced every 2 days for 10-14 days. Transepithelial resistance was measured using Millicell ERS apparatus (Millipore) at day 7, 10 and/or 14 in order to identify when the cells had become polarised. Readings of >1000 Ω were indicative of polarised cells. […]
as §1, §2, §3, §4, §6

[7] = test system: equine arteritis virus (EAV); test: Effect on equine arteritis virus infection (Example 6); format: cell-based
Procedure: Experiments were carried out to determine whether tylvalosin has an effect on equine arteritis virus (EAV).

CCN(CC)CCCC(C)Nc1ccnc2cc(Cl)ccc12 (stereo not drawn) [chloroquine]
concentration required to inhibit infection (EAV): ≥ 50 µM | concentration required to inhibit infection (FCV): ≥ 200 µM | concentration required to inhibit infection (PRRSV [1]): less than 5 μM | PRRSV spread (PRRSV [2]): no effect | initial PRRSV infection (initial site of infection) (PRRSV [2]): no effect | initial PRRSV infection (PRRSV [2]; added 4 hours before infection): inhibited | initial PRRSV infection (PRRSV [2]; added at the time of infection): inhibited

CN(C)CCCN1c2ccccc2Sc2ccc(Cl)cc21 [chlorpromazine]
PRRSV spread (PRRSV [2]): appeared to prevent spread | initial PRRSV infection (initial site of infection) (PRRSV [2]): showed the initial site of infection | initial PRRSV infection (PRRSV [2]; added 4 hours before infection): inhibited | initial PRRSV infection (PRRSV [2]; added at the time of infection): inhibited

CC[C@H]1OC(=O)[C@H](C)[C@@H](O[C@H]2C[C@@](C)(OC)[C@@H](O)[C@H](C)O2)[C@H](C)[C@@H](O[C@@H]2O[C@H](C)C[C@H](N(C)C)[C@H]2O)[C@](C)(OC)C[C@@H](C)C(=O)[C@H](C)[C@@H](O)[C@]1(C)O [clarithromycin]
transintestinal elimination, share of the total administered dose [3]: about 10%

CC[C@H]1OC(=O)C[C@@H](O)[C@H](C)[C@@H](O[C@@H]2O[C@H](C)[C@@H](O[C@H]3C[C@@](C)(O)[C@@H](O)[C@H](C)O3)[C@H](N(C)C)[C@H]2O)[C@@H](CC=O)C[C@@H](C)C(=O)/C=C/C(C)=C/[C@@H]1CO[C@@H]1O[C@H](C)[C@@H](O)[C@@H](OC)[C@H]1OC [tylosin]
effect on PRRSV (PRRSV [4]): no effect | intracellular:extracellular ratio, variation during the experimental time period [5]: 2.65-4.7 fold | average intracellular concentration ([5]; 15 min, 10 μg/mL): 10.1 μg/mg cells | intracellular concentration ([5]; 60 min, 10 μg/mL): 32.1 μg/mg cells | inhibition of VR2332 infection [6]: not | intracellular:extracellular ratio (HRT-18 cells; 4 h): less than 1 fold | intracellular:extracellular ratio (HRT-18 cells; 24 h): less than 1 fold | average intracellular concentration (LLC-PK1 cells): 2.41 μg/mg cells | effect on raising the pH in the endosomes (endosomal pH): did not have much effect | average intracellular concentration (Caco-2 cells): 1.86 μg/mg cells | basolateral chamber content as average % of the apical chamber value (Caco-2 cells): 0.52%

CC[C@H]1OC(=O)C[C@@H](OC(C)=O)[C@H](C)[C@@H](O[C@@H]2O[C@H](C)[C@@H](O[C@H]3C[C@@](C)(O)[C@@H](O)[C@H](C)O3)[C@H](N(C)C)[C@H]2O)[C@@H](CC=O)C[C@@H](C)C(=O)/C=C/C(C)=C/C1CO[C@@H]1O[C@H](C)[C@@H](O)[C@@H](OC)[C@H]1OC (stereo partly drawn) [3-acetyltylosin, 3-O-Acetyltylosin]
uptake and accumulation in cells (HRT-18 cells): behave in the same way

CC[C@H]1OC(=O)[C@H](C)[C@@H](O[C@H]2C[C@@](C)(OC)[C@@H](O)[C@H](C)O2)[C@H](C)[C@@H](O[C@@H]2O[C@H](C)C[C@H](N(C)C)[C@H]2O)[C@](C)(O)C[C@@H](C)CN(C)[C@H](C)[C@@H](O)[C@]1(C)O [azithromycin]
transintestinal elimination, share of the total administered dose [3]: 30-35%

C=C1[C@@H](C)[C@H]2[C@H](Cc3ccccc3)NC(=O)[C@]23[C@H](OC(C)=O)/C=C/[C@@](C)(O)C(=O)[C@@H](C)C/C=C/[C@H]3[C@@H]1O [cytochalasin D]
PRRSV spread (PRRSV [2]): no spread could be detected | initial PRRSV infection (initial site of infection) (PRRSV [2]): no effect | initial PRRSV infection (PRRSV [2]; added 4 hours before infection): inhibited | initial PRRSV infection (PRRSV [2]; added at the time of infection): inhibited

COC(=O)Nc1nc2ccc(C(=O)c3cccs3)cc2[nH]1 [nocodazole]
initial PRRSV infection (initial site of infection) (PRRSV [2]): no effect | initial PRRSV infection (PRRSV [2]; added 4 hours before infection): inhibited | initial PRRSV infection (PRRSV [2]; added at the time of infection): did not inhibit | EAV infection [7]: not blocked
